# From patent US11377442B2, “Small molecule agonists and antagonists of NR2F6 activity” (ZANDER THERAPEUTICS, INC., priority 2016, dated 2022)
# Like-named read-outs stand apart in the source and are kept apart here.
# Columns and labels:
# Format in all cases: cell-based
# NR2F6 = target: T1, NR2F6 (Homo sapiens, UniProt P10588); assay: NR2F6 agonist screening, Firefly signal cmpd/DMSO
# T1 construct: expressed in transfected cells; also transient transfection
# T1 sequence (P10588 1-404): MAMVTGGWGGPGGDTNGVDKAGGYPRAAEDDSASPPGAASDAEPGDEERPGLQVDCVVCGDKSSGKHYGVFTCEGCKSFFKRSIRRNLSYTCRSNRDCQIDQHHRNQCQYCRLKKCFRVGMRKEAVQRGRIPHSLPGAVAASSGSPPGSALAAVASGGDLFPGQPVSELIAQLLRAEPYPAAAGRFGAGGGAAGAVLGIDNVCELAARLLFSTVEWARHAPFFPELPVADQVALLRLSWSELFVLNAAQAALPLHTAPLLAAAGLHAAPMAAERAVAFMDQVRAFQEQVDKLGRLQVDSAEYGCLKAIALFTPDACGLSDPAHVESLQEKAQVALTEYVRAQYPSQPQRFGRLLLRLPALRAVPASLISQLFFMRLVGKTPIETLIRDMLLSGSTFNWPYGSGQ
# Renilla = Renilla signal in NR2F6 agonist screening, cmpd/DMSO; conditions: Renilla
# HEK293 pGL4 = assay: Firefly_pGL signal, cmpd/DMSO (pGL4 control cells); conditions: Homo sapiens, read-out: Firefly pGL4, cmpd/DMSO (mean)
# NR2F6 LBD = target: T2, NR2F6 LBD (Homo sapiens, UniProt P10588); assay: NR2F6 LBD transient transfection; conditions: LBD
# T2 construct: expressed in transfected cells
# T2 sequence (P10588 165-393 limits assumed): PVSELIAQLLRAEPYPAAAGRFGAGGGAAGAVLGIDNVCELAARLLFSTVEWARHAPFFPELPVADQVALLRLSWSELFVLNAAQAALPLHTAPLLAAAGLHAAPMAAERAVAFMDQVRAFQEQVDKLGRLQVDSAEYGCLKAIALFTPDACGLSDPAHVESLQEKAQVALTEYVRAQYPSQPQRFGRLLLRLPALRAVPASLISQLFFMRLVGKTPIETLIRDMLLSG
# Description: FIGS. 27A and 27B show NR2F6 and LBD transient transfection, respectively, for Compound D28. Higher concentrations were excluded due to lower signal (tox effect). FIGS. 27C and 27D show NR2F6 and LBD transient transfection at different concentrations for different compounds. 9 compounds were tested on LBD transfected cells (40, 10, 2 and 0.5 μM, 4 replicates). FIGS. 27E and 27F show toxicity of Compound D28. 9 compounds were tested for cytotoxicity on LBD transfected cells (40, 10, 2 and 0.5 μM, 4 replicates). […] Cytotoxicity normalized to DMSO is shown in FIG. 27F (0% cytotoxicity corresponds to DMSO signal, 100%—zero signal).
# FIGS. 34A and 34B show NR2F6 LBD transient transfection for Compound E21. 9 compounds were tested on LBD transfected cells (40, 10, 2 and 0.5 μM, 4 replicates). FIGS. 34C and 34D show NR2F6 and LBD transient transfection at different concentrations for different compounds. 9 compounds were tested on LBD transfected cells (40, 10, 2 and 0.5 μM, 4 replicates). […] Cytotoxicity normalized to DMSO is shown in FIG. 34D (0% cytotoxicity corresponds to DMSO signal, 100%—zero signal). All compounds were tested at 5, 10, 25 and 50 uM in duplicates. Dog PBMC (1×10^6 cells/mL) were activated by 10 ng/mL PMA+500 ng/mL ionomycin. Data were normalized to controls with (100%)/without (0%) PMA+ionomycin activation.
# FIGS. 39A and 39B show NR2F6 LBD transient transfection for Compound F1. 9 compounds were tested on LBD transfected cells (40, 10, 2 and 0.5 μM, 4 replicates). FIGS. 39C and 39D show toxicity of NR2F6 LBD transient transfection. 9 compounds were tested for cytotoxicity on LBD transfected cells (40, 10, 2 and 0.5 μM, 4 replicates). Tox effect causes lower signal compared to DMSO. Cytotoxicity normalized to DMSO is shown in FIG. 39D (0% cytotoxicity corresponds to DMSO signal, 100%—zero signal).
# [1] = F4, read-out: Renilla, F4, cmpd/DMSO (mean)
# [2] = Table 14, read-out: Renilla F4, cmpd/DMSO (mean)
"Firefly F4, cmpd/DMSO (mean) (NR2F6; Table 14, 2 uM)","Firefly F4, cmpd/DMSO (mean) (NR2F6; Table 14, 10 uM)","Firefly F4, cmpd/DMSO (mean) (NR2F6; Table 14, 40 uM)",SMILES,fold induction at 2 µM (Renilla; [2]),fold induction at 10 µM (Renilla; [2]),fold induction at 40 µM (Renilla; [2]),"fold induction at 2 µM (HEK293 pGL4; HEK293, Table 14, 2 uM)","fold induction at 10 µM (HEK293 pGL4; HEK293, Table 14, 10 uM)","fold induction at 40 µM (HEK293 pGL4; HEK293, Table 14, 40 uM)",also measured
,,,CC1CCN([C@H]2CS(=O)(=O)C[C@@H]2S(=O)(=O)c2ccc(Cl)cc2)CC1 [Compound D125],,,,,,,"Firefly F4, cmpd/DMSO (mean) (NR2F6; 0.5 uM, F4): 1.3; Firefly F4, cmpd/DMSO (mean) (NR2F6; 2 uM, F4): 2.3; Firefly F4, cmpd/DMSO (mean) (NR2F6; 10 uM, F4): 5.6; Firefly F4, cmpd/DMSO (mean) (NR2F6; 40 uM, F4): 0.9; Activity, cmpd/DMSO (NR2F6; Table 31): 7.3; fold induction at 0.5 µM (Renilla; F4, 0.5 uM, read-out: Renilla, F4, cmpd/DMSO (mean)): 1; fold induction at 2 µM (Renilla; [1]): 1.3; fold induction at 10 µM (Renilla; [1]): 1.8; fold induction at 40 µM (Renilla; [1]): 1.3; fold induction at 0.5 µM (HEK293 pGL4; HEK293, 0.5 uM, pGL4): 1.4; fold induction at 2 µM (HEK293 pGL4; HEK293, 2 uM, pGL4): 1.9; fold induction at 10 µM (HEK293 pGL4; HEK293, 10 uM, pGL4): 4.2; fold induction at 40 µM (HEK293 pGL4; HEK293, 40 uM, pGL4): 0.6; Firefly LBD, cmpd/DMSO (mean) (NR2F6 LBD; 0.5 uM): 1.0; Firefly LBD, cmpd/DMSO (mean) (NR2F6 LBD; 2 uM): 1.6; Firefly LBD, cmpd/DMSO (mean) (NR2F6 LBD; 10 uM): 4.6; Firefly LBD, cmpd/DMSO (mean) (NR2F6 LBD; 40 uM): 0.4"
0.7,0.9,0.5,Cc1cc(C)n2nc(CNS(=O)(=O)c3ccc(F)cc3)nc2n1 [Compound E12],0.7,0.7,1,0.9,0.8,1,
1.2,1.0,1.0,Cc1ccc(NC(=O)c2noc3c2CCC3)cc1C [Compound C301],1.1,0.7,1,2.4,1.6,1.1,
0.9,0.5,0.5,CCn1cc2c(n1)c(=O)n(Cc1ccccc1)c(=O)n2CC(=O)Nc1ccc(Br)cc1 [Compound L1],0.8,0.8,0.7,0.8,0.4,0.8,
1.2,0.9,0.9,Cc1ccc(NC(=O)c2noc3c2CC(C(C)(C)C)CC3)cc1C (stereo not drawn) [Compound C303],1,0.8,1,1.1,1.1,1.1,
1.2,0.9,0.9,Cc1ccc(NC(=O)c2noc3c2CCCC3)cc1C [Compound C302],0.7,1.1,1,1.8,1.4,0.8,
0.7,2.5,0.4,CCOC(=O)c1cnc2c(C)cccc2c1NCCCN(C)C [Compound Z90],0.9,0.2,0.1,0.7,2.4,0.7,
0.9,0.5,0.3,CCOC(=O)c1cnc2c(C)cc(C)cc2c1N1CCC(CO)CC1 [Compound Z79],0.9,0.6,0.2,0.8,0.5,0.8,
1.2,0.6,0.7,Cc1cc(C)c2ncc(C(N)=O)c(NCCCN(C)C)c2c1 [Compound Z83],1,0.8,0.3,1,0.9,0.5,
1.2,2.1,0.5,Cc1cc(C)nc(Sc2nnc(-c3ccc(C)c(S(=O)(=O)N4CCOCC4)c3)c3ccccc23)n1 [Compound Z56],0.9,0.3,0.2,1.2,8.9,1.2,activity (in words) (NR2F6; screening result): particularly good activity
1.0,1.1,1.4,Cc1ccc(NC(=O)c2noc3c2CC(C)CC3)cc1C (stereo not drawn) [Compound E53],0.9,0.8,1.1,1.5,1.4,1.6,cytotox effect (decreasing both renilla and firefly activity) (NR2F6; NR2F6 agonist activity confirmation): strong cytotox effect; increase of firefly activity (NR2F6; at 10 uM): 6 times; firefly signal over DMSO level (NR2F6; at 10 uM and 50 uM): ~3 times
